Source: PubChem BioAssay AID1963962 (Molecular Pharmacology Branch, DTP, NCI, 2024)

System: 967376-340-R-J2-PDC multicell spheroid viability
Assay: Anticancer human tumor 967376-340-R-J2-PDC patient-derived colon adenocarcinoma cell line growth inhibition [PI3K]
Settings: for IC50: curve of first compound; for viability, T/C: stronger effect = lower value; active = viability on the fitted dose curve at most 10% of control; inactive = the rest
Procedure, shortened: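 Tumor cells were combined with HUVEC and MSCs into spheroids, then dosed with PI3K-inhibitor combinations over half-log ranges capped near clinical Cmax or 10 microM.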

[1] = second compound 0.0316 µM, first compound 0.0316 µM
[2] = second compound 0.0316 µM, first compound 0.1 µM
[3] = second compound 0.0316 µM, first compound 0.316 µM
[4] = second compound 0.0316 µM, first compound 1 µM
[5] = second compound 0.0316 µM, first compound 3.16 µM
[6] = second compound 0.0316 µM, first compound 10 µM
[7] = second compound 0.1 µM, first compound 0.0316 µM
[8] = second compound 0.1 µM, first compound 0.1 µM
[9] = second compound 0.1 µM, first compound 0.316 µM
[10] = second compound 0.1 µM, first compound 1 µM
[11] = second compound 0.1 µM, first compound 3.16 µM
[12] = second compound 0.1 µM, first compound 10 µM
[13] = second compound 0.316 µM, first compound 0.0316 µM
[14] = second compound 0.316 µM, first compound 0.1 µM
[15] = second compound 0.316 µM, first compound 0.316 µM
[16] = second compound 0.316 µM, first compound 1 µM
[17] = second compound 0.316 µM, first compound 3.16 µM
[18] = second compound 0.316 µM, first compound 10 µM
[19] = second compound 1 µM, first compound 0.0316 µM
[20] = second compound 1 µM, first compound 0.1 µM
[21] = second compound 1 µM, first compound 0.316 µM
[22] = second compound 1 µM, first compound 1 µM
[23] = second compound 1 µM, first compound 3.16 µM
[24] = second compound 1 µM, first compound 10 µM
[25] = second compound 3.16 µM, first compound 0.0316 µM
[26] = second compound 3.16 µM, first compound 0.1 µM
[27] = second compound 3.16 µM, first compound 0.316 µM
[28] = second compound 3.16 µM, first compound 1 µM
[29] = second compound 3.16 µM, first compound 3.16 µM
[30] = second compound 3.16 µM, first compound 10 µM
[31] = second compound 10 µM, first compound 0.0316 µM
[32] = second compound 10 µM, first compound 0.1 µM
[33] = second compound 10 µM, first compound 0.316 µM
[34] = second compound 10 µM, first compound 1 µM
[35] = second compound 10 µM, first compound 3.16 µM
[36] = second compound 10 µM, first compound 10 µM
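Note: spheroids exposed to agents for 7 days before read-out.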
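Throughout, for viability, T/C: luminescence used as surrogate of cell viability.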

CC1(C)CCC(Nc2ncc(C(F)(F)F)c(-c3c[nH]c4c(P(C)(C)=O)c(C#N)ccc34)n2)CN1 (stereo unspecified) + Cc1nc(NC(=O)N2CCCC2C(N)=O)sc1-c1ccnc(C(C)(C)C(F)(F)F)c1
0.386 µM: IC50 (second compound 3.16 µM)
3.81 µM: IC50 (second compound 0.0316 µM)
inactive: viability, T/C [1] 82.8% | viability, T/C [2] 72.5% | viability, T/C [3] 55.6% | viability, T/C [4] 54.7% | viability, T/C [5] 61.5% | viability, T/C [6] 40.8% | viability, T/C [7] 78.4% | viability, T/C [8] 68.8% | viability, T/C [9] 69.7% | viability, T/C [10] 66.8% | viability, T/C [11] 63% | viability, T/C [12] 41.2% | viability, T/C [13] 67.5% | viability, T/C [14] 73.3% | viability, T/C [15] 48.5% | viability, T/C [16] 58.5% | viability, T/C [17] 60.4% | viability, T/C [18] 39.2% | viability, T/C [19] 51.6% | viability, T/C [20] 53.8% | viability, T/C [21] 72.8% | viability, T/C [22] 43.6% | viability, T/C [23] 45.5% | viability, T/C [24] 34.1% | viability, T/C [25] 58.9% | viability, T/C [26] 51.2% | viability, T/C [27] 49.4% | viability, T/C [28] 47.3% | viability, T/C [29] 41.4% | viability, T/C [30] 30.7% | viability, T/C [31] 54.8% | viability, T/C [32] 39.1% | viability, T/C [33] 39.6% | viability, T/C [34] 34.9% | viability, T/C [35] 31.4% | viability, T/C [36] 23.3%
3.95 µM: IC50 (second compound 0.316 µM)
6.06 µM: IC50 (second compound 0.1 µM)
0.0432 µM: IC50 (second compound 10 µM)
0.629 µM: IC50 (second compound 1 µM)

Cn1ncc(Cl)c1-c1cc(C(=O)NC(CN)Cc2cccc(F)c2)sc1Cl (stereo unspecified) + Cc1nc(NC(=O)N2CCCC2C(N)=O)sc1-c1ccnc(C(C)(C)C(F)(F)F)c1
0.366 µM: IC50 (second compound 10 µM)
7.44 µM: IC50 (second compound 0.1 µM)
5.42 µM: IC50 (second compound 3.16 µM)
inactive: viability, T/C [1] 108% | viability, T/C [2] 79% | viability, T/C [3] 77.8% | viability, T/C [4] 72.3% | viability, T/C [5] 61.3% | viability, T/C [6] 71.4% | viability, T/C [7] 75.6% | viability, T/C [8] 91% | viability, T/C [9] 76.5% | viability, T/C [10] 82.6% | viability, T/C [11] 75.2% | viability, T/C [12] 41.1% | viability, T/C [13] 72.8% | viability, T/C [14] 82% | viability, T/C [15] 78.1% | viability, T/C [16] 89.6% | viability, T/C [17] 61.6% | viability, T/C [18] 59.9% | viability, T/C [19] 62.2% | viability, T/C [20] 83.4% | viability, T/C [21] 60.5% | viability, T/C [22] 65% | viability, T/C [23] 55.3% | viability, T/C [24] 38.9% | viability, T/C [25] 52.2% | viability, T/C [26] 55.9% | viability, T/C [27] 53.2% | viability, T/C [28] 61.3% | viability, T/C [29] 52% | viability, T/C [30] 42.4% | viability, T/C [31] 60.4% | viability, T/C [32] 55.6% | viability, T/C [33] 51.2% | viability, T/C [34] 40.8% | viability, T/C [35] 46.7% | viability, T/C [36] 32.8%
4.6 µM: IC50 (second compound 1 µM)
> 10 µM: IC50 (second compound 0.0316 µM) | IC50 (second compound 0.316 µM)

Cn1nccc1Nc1nccc(-c2ccn(C(CO)c3ccc(Cl)c(F)c3)c(=O)c2)n1 (stereo unspecified) + Cc1nc(NC(=O)N2CCCC2C(N)=O)sc1-c1ccnc(C(C)(C)C(F)(F)F)c1
inactive: viability, T/C [1] 66.3% | viability, T/C [2] 104% | viability, T/C [3] 97.2% | viability, T/C [4] 83.5% | viability, T/C [5] 87.3% | viability, T/C [6] 85.7% | viability, T/C [7] 70.2% | viability, T/C [8] 67% | viability, T/C [9] 85.1% | viability, T/C [10] 76.7% | viability, T/C [11] 72.4% | viability, T/C [12] 75.5% | viability, T/C [13] 65.4% | viability, T/C [14] 70.9% | viability, T/C [15] 63.8% | viability, T/C [16] 82% | viability, T/C [17] 84.2% | viability, T/C [18] 60.7% | viability, T/C [19] 66.6% | viability, T/C [20] 61% | viability, T/C [21] 60.1% | viability, T/C [22] 67.8% | viability, T/C [23] 64.7% | viability, T/C [24] 53.5% | viability, T/C [25] 46.1% | viability, T/C [26] 61.4% | viability, T/C [27] 56.3% | viability, T/C [28] 58.5% | viability, T/C [29] 60.8% | viability, T/C [30] 77.1% | viability, T/C [31] 39.9% | viability, T/C [32] 47.6% | viability, T/C [33] 42.2% | viability, T/C [34] 36.1% | viability, T/C [35] 53.7% | viability, T/C [36] 32.3%
> 10 µM: IC50 (second compound 0.0316 µM) | IC50 (second compound 0.1 µM) | IC50 (second compound 0.316 µM) | IC50 (second compound 1 µM) | IC50 (second compound 3.16 µM)
< 0.0316 µM: IC50 (second compound 10 µM)
